# Tested on: 324938-238-R-J1-PDC complex spheroid viability
# Assay: Anticancer human tumor 324938-238-R-J1-PDC patient-derived bladder carcinoma cell line growth inhibition
# Settings: for IC50: curve of first compound; for viability, T/C: stronger effect = lower value
# Summary of the method: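 Multicellular complex spheroids of tumor cells with human endothelial cells (HUVEC) and mesenchymal stem cells; the LSD1 inhibitor iadademstat was combined with standard-of-care or investigational agents. Top concentration at or near clinical Cmax, half-log dilutions; final DMSO ≤0.25%.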
# 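Further: spheroids also contain HUVEC and human MSCs and agents combined with iadademstat; spheroids exposed to agents for 7 days before readout.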
structure (smiles),measurement,setting,value
CC1(C)CCC(CN2CCN(c3ccc(C(=O)NS(=O)(=O)c4ccc(NCC5CCOCC5)c([N+](=O)[O-])c4)c(Oc4cnc5[nH]ccc5c4)c3)CC2)=C(c2ccc(Cl)cc2)C1 + NC1CC1c1ccc(-c2cccc(O)c2)cc1,IC50,second compound 0.1 µM,3.96 µM
same,IC50,second compound 0.316 µM,4.48 µM
same,IC50,second compound 1 µM,3.96 µM
same,IC50,second compound 3.16 µM,4.19 µM
same,IC50,second compound 10 µM,2.23 µM
same,"viability, T/C","second compound 0.1 µM, first compound 0.0316 µM",94.5%
same,"viability, T/C","second compound 0.1 µM, first compound 0.1 µM",91.3%
same,"viability, T/C","second compound 0.1 µM, first compound 0.316 µM",91.7%
same,"viability, T/C","second compound 0.1 µM, first compound 1 µM",71%
same,"viability, T/C","second compound 0.1 µM, first compound 3.16 µM",61.5%
same,"viability, T/C","second compound 0.1 µM, first compound 10 µM",17.3%
same,"viability, T/C","second compound 0.316 µM, first compound 0.0316 µM",72%
same,"viability, T/C","second compound 0.316 µM, first compound 0.1 µM",74.9%
same,"viability, T/C","second compound 0.316 µM, first compound 0.316 µM",73.2%
same,"viability, T/C","second compound 0.316 µM, first compound 1 µM",66.5%
same,"viability, T/C","second compound 0.316 µM, first compound 3.16 µM",64.2%
same,"viability, T/C","second compound 0.316 µM, first compound 10 µM",19.8%
same,"viability, T/C","second compound 1 µM, first compound 0.0316 µM",78.4%
same,"viability, T/C","second compound 1 µM, first compound 0.1 µM",74.6%
same,"viability, T/C","second compound 1 µM, first compound 0.316 µM",66.4%
same,"viability, T/C","second compound 1 µM, first compound 1 µM",69.8%
same,"viability, T/C","second compound 1 µM, first compound 3.16 µM",58.5%
same,"viability, T/C","second compound 1 µM, first compound 10 µM",19.8%
same,"viability, T/C","second compound 3.16 µM, first compound 0.0316 µM",70.9%
same,"viability, T/C","second compound 3.16 µM, first compound 0.1 µM",68.3%
same,"viability, T/C","second compound 3.16 µM, first compound 0.316 µM",68.1%
same,"viability, T/C","second compound 3.16 µM, first compound 1 µM",74.3%
same,"viability, T/C","second compound 3.16 µM, first compound 3.16 µM",59.6%
same,"viability, T/C","second compound 3.16 µM, first compound 10 µM",20.3%
same,"viability, T/C","second compound 10 µM, first compound 0.0316 µM",70.5%
same,"viability, T/C","second compound 10 µM, first compound 0.1 µM",67.6%
same,"viability, T/C","second compound 10 µM, first compound 0.316 µM",66.3%
same,"viability, T/C","second compound 10 µM, first compound 1 µM",56.8%
same,"viability, T/C","second compound 10 µM, first compound 3.16 µM",47.9%
same,"viability, T/C","second compound 10 µM, first compound 10 µM",17.8%

# — PubChem BioAssay AID1918935 (Molecular Pharmacology Branch, DTP, NCI, 2023)
